Laboratory results reported in publication PMC10208956, “Microbial peptides activate tumour-infiltrating lymphocytes in glioblastoma” (Nature, 2023).

Assays:
Format in all cases: cell-based, human
TCC88 = test: Cytokine and chemokine secretion of TCC88 after peptide stimulation; conditions: TCC88 supernatant after peptide stimulation; no peptide control subtracted; Fig. 3e
Source text: (§1) Fig. 3 Bacteria-derived and microbiota-derived peptides can stimulate TCC88 as well as the tumour antigen. a, Peptides with the highest predicted stimulatory scores were identified by searching various databases (see Methods). Numbers of unique 10-mer peptides within each database, synthesized peptides, TCC88 stimulatory peptides and the corresponding percentage of stimulatory peptides within each database are shown. […] Cytokine and chemokine secretion of TCC88 was examined and compared upon stimulation with these three different antigens. A specific amount of each cytokine and chemokine (pg ml^−1) was calculated by subtracting the cytokines in the negative control cultures (no peptide control). f, Cytotoxicity of TCC88 against the autologous tumour cell line after stimulation with 2 µM of SIN3A* and HGM3 (data represent the mean percentage of two replicate wells). E:T, effector to target. g, TCC88 was tested with HGM3 (10 µM) or SIN3A* (10 µM) peptides or both together (each 10 µM), and ^3H-thymidine incorporation was measured after 3 days (data represent the mean SI value of three replicate wells ± s.e.m.). Also see Extended Data Figs. 3 and 4. Source data
Supernatants from each experiment were harvested a day before adding thymidine and frozen at −20 °C. Cytokines were measured using ELISA for human IFNγ ELISA MAX (BioLegend), human GM-CSF DuoSet ELISA (R&D Systems) and bead-based assays. A Synergy H1 hybrid multi-mode reader (Agilent) was used to measure the absorbance. The LEGENDplex Multi-analyte Flow Assay kit (BioLegend) is a 13-plex human TH cytokine panel, which includes IFNγ, TNF, IL-2, IL-4, IL-5, IL-6, IL-9, IL-10, IL-13, IL-17A, IL-17F, IL-21 and IL-22. […] LSR Fortessa Flow Cytometer (BD Biosciences) was used to measure cytokines, and data were analysed using FlowJo (Tree Star). The Human XL Cytokine Luminex Performance Assay Fixed Panel (R&D Systems) contains 45 analytes covering a broad range of various chemokines and cytokines.

[1] = system: autologous glioblastoma cells; test: T cell cytotoxicity assay of TCC88 against the autologous tumour cell line; conditions: TCC88 stimulated with 2 µM peptide for 72 h; E:T 1:1 and 5:1; 24 h; duplicates; Fig. 3f
Source text: as §1, with “Source data […]” for “Source data”

[2] = system: sorted CD4+ PE and FITC TCRVβ+ TILs; test: Proliferation of TCRBV-sorted CD4+ TILs (without TCRBV6.1 and TCRBV6.2); conditions: sheet 6b
Source text: TILs expressing specific TCRBVs were isolated from bulk TILs using a panel of 22 fluorescently labelled TCRBV antibodies that detect 27 different TCRBVs. Twelve TCRBV antibodies were labelled with PE and 10 with FITC (Beckman Coulter). […] After another wash, cells were stained with CD4 (1:100) (APC anti-human CD4, eBioscience), CD8 (1:100) (Pacific blue anti-human CD8, BioLegend), TCRBV-PE (1:25) (Beckman Coulter) and TCRBV-FITC (1:25) (Beckman Coulter) antibodies (Supplementary Table 12) for 30 min. Finally, cells were sorted, seeded at 5 × 10^4 cells per well in T cell medium without h-IL-2 and rested for 1 day before stimulation with 2 × 10^5 cells per well of irradiated autologous PBMCs (45 Gy) and peptide (10 µM).
Two populations of CD4^+ PE-TCRVβ^+ and CD4^+ FITC-TCRVβ^+ were sorted and later mixed together. […] Specific amount of each cytokine/chemokine (pg/ml) was calculated by subtracting the cytokines in the negative control cultures (no peptide control). Source data

## Ac-LLEFNHSLGM-NH2 [HGM3]
TCC88
  CCL20/MIP-3α: 6.47 pg/mL
  CD40 Ligand: 1548.01 pg/mL
  CXCL1/GROα: 80.23 pg/mL
  CXCL2/GROβ: 106.77 pg/mL
  CXCL8/IL-8: 0 pg/mL
  CXCL10/IP-10: 30.99 pg/mL
  Flt-3 Ligand: 108.26 pg/mL
  Fractalkine: 325.67 pg/mL
  GM-CSF: 4861.7 pg/mL
  Granzyme B: 2019.57 pg/mL
  IFN-α: 2.54 pg/mL
  IFN-γ: 781.13 pg/mL
  IL-1rα: 2003.66 pg/mL
  IL-1α: 12.29 pg/mL
  IL-1β: 17.76 pg/mL
  IL-2: 80.09 pg/mL
  IL-3: 109.49 pg/mL
  IL-4: 85.48 pg/mL
  IL-5: 32.99 pg/mL
  IL-6: 151.16 pg/mL
  IL-7: 0.74 pg/mL
  IL-10: 3974.26 pg/mL
  IL-12p70: 26.12 pg/mL
  IL-13: 1591.43 pg/mL
  IL-15: 2.07 pg/mL
  IL-17A: 1.97 pg/mL
  IL-17E/IL-25: 0 pg/mL
  IL-33: 17.4 pg/mL
  TNF-α: 4132.48 pg/mL
[1]
  cytotoxic activity against autologous glioblastoma cells (in words): comparable
[2]; replicate 1
  Proliferation (SI) of sorted CD4+ TILs: 1.141
[2]; replicate 2
  Proliferation (SI) of sorted CD4+ TILs: 1.14
[2]; replicate 3
  Proliferation (SI) of sorted CD4+ TILs: 1.525
